Measurements: US20210207086A1, “NE[…], INTERNAL AGENT, CULTURE MEDIUM ADDITIVE, CELL DILUENT ADDITIVE, CULTURE MEDIUM, AND CELL DILUENT” (LAIMU CORPORATION, priority 2018, published 2021)

Key:
Format in all cases: cell-based, rat
[1] = test system: PC12 cells; assay: Bt2cAMP-induced neurite formation-promoting effect in PC12 cells; conditions: 0.5 mM Bt2cAMP; for neurite formation ratio / neurite formation-promoting effect: compound 0.05-5 μM, FIGS. 1 and 2; for neurite formation-promoting effect compared between compounds: comparison with β-sitosterol or campesterol
Method: Using rat adrenal medullary pheochromocytoma-derived PC12 cells (obtained from RIKEN BRC) as a neurodifferentiative model, β-sitosterol, stigmasterol and campesterol were evaluated in terms of the Bt2cAMP (dibutyryladenosine 3′,5′-cyclic monophosphate)-induced neurite formation-promoting effect thereof.
First, PC12 cells were floated on an RPMI-1640 medium (from Sigma Aldrich Corporation) containing 10% equine serum (inactivated), 5% bovine fetal serum (inactivated), 100 U/mL of penicillin G and 100 μg/mL of streptomycin, and well suspended therein so as to be single cells. The suspension of PC 12 cells were sowed on a collagen-coated 96-well plate in an amount of […] cells/90 μL/well, and incubated in a 5% CO2 vapor phase at 37° C. for 24 hours. After incubation, a Dulbecco PBS(−) (Dulbecco phosphate buffer physiological saline water not containing Ca and Mg) added with Bt2cAMP at a concentration of 10 mM, RPMI-1640 medium added with β-sitosterol at a different concentration, or RPMI-1640 medium not added with β-sitosterol was added to the culture medium in each well in an amount of 5 μL each, and further incubated for 24 hours. At that time, the final concentration of each reagent added to the medium in each well was 0.5 mM with no exception for Bt2cAMP, and was 0 μM, 0.05 μM, 0.1 μM, 0.5 μM, 1 μM or 5 μM for β-sitosterol. After incubation, the culture medium was removed from each well, and 1% glutaraldehyde-containing phosphate buffer (0.1 M, pH 7.2) was dispensed in each well in an amount of 100 μL/well, and then left as such for 20 minutes to fix the cells. Subsequently, the glutaraldehyde-containing phosphate buffer was removed from each well, then a Giemsa stain fluid was dispensed in an amount of 100 μL/well, and left as such for 2 to 3 minutes for staining. After staining, the Giemsa stain fluid was removed from each well, and the stained sample in each well was washed twice with ultra-pure water, and then dried.
The number of the positive cells relative to the total number of cells (the total number of cells judged to be positive or negative) was calculated as percentage to be a neurite formation ratio. Here, for positive or negative judgement, 300 to 400 cells/well were observed.
PC12 cells were incubated according to the same method as above except that stigmasterol or campesterol, or a comparative compound of cholesterol or progesterone was used in place of β-sitosterol, and the neurite formation ratio in each case was calculated.
Graphs were drawn by plotting the neurite formation ratio relative to the concentration of β-sitosterol, campesterol or cholesterol added to the culture medium of PC 12 cells, and shown in FIG. 1. Graphs were drawn by plotting the neurite formation ratio relative to the concentration of β-sitosterol, stigmasterol or progesterone added to the culture medium of PC 12 cells, and shown in FIG. 2. In FIGS. 1 and 2, the horizontal axis is a logarithmic scale. The neurite formation ratio is shown as SD, and SD is a standard deviation in the three tests carried out in the same manner. “*” indicates p<0.05, and “**” indicates p<0.01. The same shall apply to the expression of the neurite formation ratio in FIG. 3, as measured in the following experiment (b).

[2] = test system: PC12 cells; assay: NGF-induced neurite formation-promoting effect in PC12 cells; conditions: 10 ng/mL NGF, β-sitosterol 0.05-5 μM, 48 hours; FIG. 3
Method: Here, NGF (nerve growth factor) differing from Bt2cAMP in point of signaling pathways was used as an inducing agent for neurite formation to evaluate the NGF-induced neurite formation-promoting effect of β-sitosterol.
Specifically, PC12 cells were incubated according to the same method as above except that an NGF-added Dulbecco PBS(−) was used in place of the Bt2cAMP-added Dulbecco PBS(−) and the incubation time for the PC12 cells after addition of NGF and β-sitosterol thereto was 48 hours, and the neurite formation ratio was calculated. The final concentration of each reagent added to the culture medium of PC12 cells in each well was 10 ng/mL with no exception for NGF, and was 0 μM, 0.05 μM, 0.1 μM, 0.5 μM, 1 μM or 5 μM for β-sitosterol. A graph was drawn by plotting the neurite formation ratio relative to the concentration of β-sitosterol added to the culture medium of PC 12 cells, and shown in FIG. 3.

[3] = test system: PC12 cells; assay: NGF-inductive neural differentiation-promoting effect (neurofilament immunofluorescent staining); conditions: 10 ng/mL NGF, 0.5 μM β-sitosterol, 48 hours; FIG. 5
Method: A neurofilament was used as a neural differentiation marker. This was stained according to an immunofluorescent staining method for evaluating the neural differentiation promoting effect of β-sitosterol.
PC12 cells were floated in an RPMI-1640 medium containing 10% equine serum (inactivated), 5% bovine fetal serum (inactivated), 100 U/mL of penicillin G and 100 μg/mL of streptomycin and well suspended therein to be single cells of 1.4×10^4 cells/mL. The suspension of PC12 cells was sown in a collagen-coated 8-well chamber slide at 5.0×10^3 cells/360 μL/well, and incubated in a 5% CO2 vapor phase at 37° C. for 24 hours. After incubation, an NGF-added Dulbecco PBS(−) (NGF solution), and a β-sitosterol-added RPMI-1640 medium (β-sitosterol solution) were added to the medium in each well in an amount 20 μL/well each, and further incubated for 48 hours. At that time, the final concentration of each reagent added to the medium in each well was 10 ng/mL for NGF, and was 0.5 μM for β-sitosterol. After incubation, the medium was removed from each well, which was then washed with PBS(−) (phosphate buffer physiological saline water (not containing Ca and Mg)), processed with a 4% formaldehyde solution dispensed in each well for 30 minutes, and thereafter washed three times with PBS(−) for 3 minutes. […]

[4] = test system: PC12 cells; assay: Cell toxicity test (Calcein-AM, number of living PC12 cells); conditions: 0.5 mM Bt2cAMP, β-sitosterol 0.05-5 μM, 24 hours; FIG. 4
Method: For confirming that the neurite formation-promoting effect of each compound recognized in the above-mentioned evaluations (a) and (b) is not caused by stress (cell toxicity) given to cells, the number of living PC12 cells incubated in a culture medium added with Bt2cAMP and β-sitosterol was evaluated using Calcein-AM (from Dojindo Molecular Technologies, Inc.). Calcein-AM is a cell membrane-permeable compound, and when taken in living cells, it is hydrolyzed with esterase to release calcein. […] Accordingly, after a group of cells were processed with Calcein-AM so as to make Calcein-AM taken by the living cells, and then the cells were disrupted to measure the fluorescence intensity by calcein, whereby the number of the living cells in the group of cells can be known. […]
The fluorescence intensity of the sample in each well processed as above was measured at an excitation wavelength of 485 nm and a detection wavelength of 527 nm. The data of the measured fluorescence intensity were plotted relative to the concentration of β-sitosterol added to the culture medium of PC12 cells, and the resultant graph is shown in FIG. 4. […] The fluorescence intensity is a relative value based on the actual value of the fluorescence intensity, 100%, measured in the system not added with β-sitosterol, and is shown as ±DS. […]

Row | Structure (SMILES) | neurite formation ratio / neurite formation-promoting effect ([1]; 24 hours) | neurite formation-promoting effect compared between compounds [1] | other results
1 | CC(C)[C@H](C)CC[C@@H](C)[C@H]1CC[C@H]2[C@@H]3CC=C4C[C@@H](O)CC[C@]4(C)[C@H]3CC[C@]12C [campesterol] | significantly increased | – | –
2 | CC(C)CCC[C@@H](C)[C@H]1CC[C@H]2[C@@H]3CC=C4C[C@@H](O)CC[C@]4(C)[C@H]3CC[C@]12C [cholesterol, reference compound] | not recognized to have a neurite formation-promoting effect | – | –
3 | CC[C@H](/C=C/[C@@H](C)C1CCC2C3CC=C4C[C@@H](O)CC[C@]4(C)C3CC[C@@]21C)C(C)C (stereo partly drawn) [stigmasterol] | significantly increased | no difference in the neurite formation-promoting effect | –
4 | CC(=O)[C@H]1CC[C@H]2[C@@H]3CCC4=CC(=O)CC[C@]4(C)[C@H]3CC[C@]12C [Progesterone, progesterone, reference compound] | extremely weak | – | neurite formation ratio ([1]; compound added in an amount of 0.1 μM, 24 hours, FIG. 2): recognized to increase the neurite formation ratio
5 | CC[C@H](CC[C@@H](C)C1CCC2C3CC=C4C[C@@H](O)CC[C@]4(C)C3CC[C@@]21C)C(C)C (stereo partly drawn) [β-sitosterol] | significantly increased | stronger neurite formation-promoting effect than the system added with campesterol | neurite formation ratio [2]: significantly increased; neurofilaments (bright spots in FITC fluorescently-stained image) versus NGF alone [3]: larger number of neurofilaments appeared; fluorescence intensity (calcein), relative to system not added with β-sitosterol [4]: changed little; number of living cells [4]: does not decrease
